Source: the supplement of paper PMC10307832

What was measured:
Assay in all cases: relative viability (nuclei count vs DMSO), 5 days (fraction); higher = more cells survive
Avagacestat + OSI-027 = compound: NC(=O)[C@@H](CCC(F)(F)F)N(Cc1ccc(-c2ncon2)cc1F)S(=O)(=O)c1ccc(Cl)cc1 [Avagacestat] + COc1cccc2cc(-c3nc([C@H]4CC[C@H](C(=O)O)CC4)n4ncnc(N)c34)[nH]c12 [OSI-027] (partner 0.5 µM)
How it was run: (§1)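 The day after seeding in 1536-well plates, lung cancer cell lines were treated by pin tool with a single drug, or with a fixed anchor-drug dose together with five library-drug doses (not always all listed) in √10 steps. After 5 days, a combined fix-and-stain solution (final 0.05% Triton X-100, 1% formaldehyde, 1 ug/ml Hoechst) was added. Nuclei counted on 4× images gave relative viability as treated counts over vehicle counts, reported as the median of duplicate plates.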

Avagacestat + Luminespib = compound: NC(=O)[C@@H](CCC(F)(F)F)N(Cc1ccc(-c2ncon2)cc1F)S(=O)(=O)c1ccc(Cl)cc1 [Avagacestat] + CCNC(=O)c1noc(-c2cc(C(C)C)c(O)cc2O)c1-c1ccc(CN2CCOCC2)cc1 [Luminespib] (partner 0.01 µM)
How it was run: as §1

Avagacestat + Linsitinib = compound: NC(=O)[C@@H](CCC(F)(F)F)N(Cc1ccc(-c2ncon2)cc1F)S(=O)(=O)c1ccc(Cl)cc1 [Avagacestat] + C[C@]1(O)C[C@@H](c2nc(-c3ccc4ccc(-c5ccccc5)nc4c3)c3c(N)nccn32)C1 [Linsitinib] (partner 1 µM)
How it was run: as §1

Avagacestat + Lapatinib = compound: NC(=O)[C@@H](CCC(F)(F)F)N(Cc1ccc(-c2ncon2)cc1F)S(=O)(=O)c1ccc(Cl)cc1 [Avagacestat] + CS(=O)(=O)CCNCc1ccc(-c2ccc3ncnc(Nc4ccc(OCc5cccc(F)c5)c(Cl)c4)c3c2)o1 [Lapatinib] (partner 2 µM)
How it was run: as §1

Cell Line	relative viability (Avagacestat + OSI-027; first compound 0.08 µM)	relative viability (Avagacestat + OSI-027; first compound 0.253 µM)	relative viability (Avagacestat + OSI-027; first compound 0.8 µM)	relative viability (Avagacestat + OSI-027; first compound 2.53 µM)	relative viability (Avagacestat + OSI-027; first compound 8 µM)	relative viability (Avagacestat + Luminespib; first compound 0.08 µM)	relative viability (Avagacestat + Luminespib; first compound 0.253 µM)	relative viability (Avagacestat + Luminespib; first compound 0.8 µM)	relative viability (Avagacestat + Luminespib; first compound 2.53 µM)	relative viability (Avagacestat + Luminespib; first compound 8 µM)	relative viability (Avagacestat + Linsitinib; first compound 0.08 µM)	relative viability (Avagacestat + Linsitinib; first compound 0.253 µM)	relative viability (Avagacestat + Linsitinib; first compound 0.8 µM)	relative viability (Avagacestat + Linsitinib; first compound 2.53 µM)	relative viability (Avagacestat + Linsitinib; first compound 8 µM)	relative viability (Avagacestat + Lapatinib; first compound 0.08 µM)	relative viability (Avagacestat + Lapatinib; first compound 0.253 µM)	relative viability (Avagacestat + Lapatinib; first compound 0.8 µM)	relative viability (Avagacestat + Lapatinib; first compound 2.53 µM)	relative viability (Avagacestat + Lapatinib; first compound 8 µM)
A-427	0.543	0.474	0.421	0.403	0.445	0.91	1.13	1.05	0.81	0.821	1.11	1.24	1.16	1.15	1.22	1.03	1.28	1.12	1.07	1.06
LOU-NH91	0.688	0.656	0.789	0.723	0.716	0.311	0.341	0.31	0.331	0.342	0.966	0.883	1.01	0.786	0.929	0.816	0.788	0.831	0.692	0.776
HCC-15	0.757	0.881	0.776	0.644	0.717	0.442	0.338	0.309	0.325	0.284	0.985	0.998	0.874	0.936	0.755	0.95	1.04	1.12	0.879	0.778
NCI-H661	0.786	0.775	0.694	0.704	0.669	0.983	1.08	0.946	0.913	1.01	0.736	0.713	0.634		0.566	0.508	0.594	0.473		0.497
NCI-H1666	1.2	0.933	1.1	0.911	0.905	1.29	1.21	1.12	1.07	1.13	1.03	0.861	1.02	0.865	1.02	0.858	0.877	0.756	0.639	0.523
NCI-H1915	0.744	0.639	0.596	0.582	0.568	1.07	1.18	1.01	0.745	0.669	1.11	1.18	1.08	1.08	1.09	0.965	1.12	1.12	0.988	0.949
NCI-H2085	0.928	0.837	0.898	0.742	0.897	0.438	0.481	0.729	0.414	0.472	0.913	0.967	1.08	0.922	0.84	0.805	0.939	0.912	0.728	0.811
COR-L 105	0.614	0.687	0.74	0.525	0.486	1.02	1.01	0.798	0.542	0.754	0.99	0.972	0.59	0.964	0.755	0.345	0.352	0.341	0.345	0.348
NCI-H1755	0.816	0.748	0.742	0.654	0.579	0.72	0.55	0.418	0.697	0.386	1.05	1.05	1.03	0.991	0.951	1.05	1.29	1.22	1.04	1.02
NCI-H322M	0.519	0.562	0.571	0.501	0.488	0.862	0.875	0.927	0.695	0.638	0.826	0.892	1.03	0.823	0.681	0.556	0.555	0.601	0.504	0.432
CAL-12T	1.01	0.873	0.957	0.841	0.607	0.351	0.921	0.427	0.364	0.276	0.94	0.865	0.931	0.768	0.693	0.836	0.859	0.833	0.747	0.699
HCC-827	0.892	0.688	0.818	0.668	0.703	0.711	0.927	0.586	0.324	0.578	1.03	1.02	0.931	0.995	1.08	0.197	0.178	0.177	0.169	0.191
NCI-H2087	0.631	0.617	0.63	0.54	0.575	0.161	0.173	0.276	0.264	0.143	1.2	1.2	1.03	1.2	1.02	1.33	1.04	1.05	1.25	1.06
